Results on 1 molecule are retold here after ChEMBL document CHEMBL6134822, “Discovery of a potent and in vivo anti-inflammatory Efficacious, P2Y14R antagonist with a novel benzisoxazoles scaffold by DNA-encoded chemical library technology” (Eur J Med Chem, 2025).

Calls of active or inactive are those of the source. The rule behind the calls is not given here. A value given as a limit tells only on which side of the number the result lay.

Series [1] concerns Mus musculus. The series is described as follows: Anti-inflammatory activity in C57BL/6 mouse model of LPS-induced ALI assessed as reduction in MPO level in lung tissue at 2 to 6 mg/kg qd treated for 7 days. Conditions: dose 2-6 mg/kg, time 7.0 day. The series is classed as functional, organism-based.
Series [2] is described as follows: Microsomal stability in human liver microsomes assessed as intrinsic clearance. It is filed as ADME, Microsome. Conditions: read-out: CLH. (In general: Microsomes from liver hold many membrane-bound enzymes, among them those of drug oxidation.)
The nature of series [3]: Stability in simulated gastric fluid assessed as half life. It is filed as physicochemical.
Series [4] deals with Mus musculus. Description: Anti-inflammatory activity in C57BL/6 mouse model of LPS-induced ALI assessed as reduction in lung tissue damage at 2 to 6 mg/kg qd treated for 7 days by H and E staining based analysis. The series is classed as functional, organism-based. Conditions: dose 2-6 mg/kg, time 7.0 day.
In series [5] the target is T1, P2Y purinoceptor 14 (Homo sapiens, UniProt Q15391).
T1 sequence (Q15391 whole entry): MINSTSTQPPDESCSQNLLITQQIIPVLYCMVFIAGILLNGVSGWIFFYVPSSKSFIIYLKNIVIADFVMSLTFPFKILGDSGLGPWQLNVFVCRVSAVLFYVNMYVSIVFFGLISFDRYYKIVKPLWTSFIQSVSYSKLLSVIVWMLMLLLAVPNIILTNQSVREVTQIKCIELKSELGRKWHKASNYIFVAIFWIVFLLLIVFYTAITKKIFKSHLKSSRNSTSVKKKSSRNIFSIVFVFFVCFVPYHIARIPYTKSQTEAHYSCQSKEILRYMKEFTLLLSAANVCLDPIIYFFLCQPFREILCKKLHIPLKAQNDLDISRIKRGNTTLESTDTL
The series is described as follows: Antagonist activity at P2Y14 receptor (unknown origin) stably expressed in HEK293 cells assessed as inhibition of forskolin-induced intracellular cAMP production incubated for 30 mins in presence of UDPG by Camp-Glo kit assay. It is filed as functional, cell-based. A general note: Changes in cAMP serve as a functional read-out for many G protein-coupled receptors.

Series [6] deals with T1, P2Y purinoceptor 14. The series is described as follows: Binding affinity to CM5 chip-immobilized P2Y14 receptor (unknown origin) assessed as equilibrium dissociation constant by SPR analysis. For orientation: SPR reads the build-up and loss of mass on a sensor chip optically.
Series [7] can be described thus: Stability in simulated intestinal fluid assessed as half life. It is filed as physicochemical.
Series [8] is described as follows: Toxicity in C57BL/6 mouse model of LPS-induced ALI assessed as average body weight change at 2 to 6 mg/kg qd treated for 7 days. The series is classed as organism-based. The note with it: in vivo, 168 h, dose 2-6 mg/kg, time 7 day.
Series [9] has as its system Mus musculus. The series is described as follows: Anti-inflammatory activity in C57BL/6 mouse model of LPS-induced ALI assessed as reduction in TNF-alpha level in BALF at 2 to 6 mg/kg qd treated for 7 days by ELISA. It is filed as functional, organism-based. The note with it: dose 2-6 mg/kg, time 7.0 day.
For series [10], the system named is Mus musculus. Description: Anti-inflammatory activity in C57BL/6 mouse model of LPS-induced ALI assessed as reduction in IL-6 level in BALF at 2 to 6 mg/kg qd treated for 7 days by ELISA. The series is classed as functional, organism-based. Conditions: dose 2-6 mg/kg, time 7.0 day.
Series [11] has as its system Mus musculus. Description: Anti-inflammatory activity in C57BL/6 mouse model of LPS-induced ALI assessed as reduction in IL-1beta level in BALF at 2 to 6 mg/kg qd treated for 7 days by ELISA. The series is classed as functional, organism-based. The note with it: dose 2-6 mg/kg, time 7.0 day.
Series [12] in a line: Microsomal stability in human liver microsomes assessed as half life. It is filed as ADME, Microsome.

Usually half-life stands for how long it takes for the measured level to halve. The term IC50 denotes the point on the concentration scale where inhibition reaches its midpoint. As a reminder, the Kd is a measure of binding affinity in units of concentration. Take `CNC(=O)C1CN(C(=O)c2onc3ccccc23)CC12CCN(C(=O)c1noc3ccccc13)CC2` (configuration not stated): the result in the series on Mus musculus [1], in the series on Mus musculus [4], in the series on Mus musculus [9], in the series on Mus musculus [10] and in the series on Mus musculus [11] was Active. In addition, the microsomal CLint in series [2] is 25.6 µL/min/mg. Also, the half-life is greater than 50 h in series [3], greater than 5 h in [7] and 5.9 h in series [12]. Besides, at P2Y purinoceptor 14 [5], the IC50 was determined as 0.0236 µM. Besides, the Kd at P2Y purinoceptor 14 [6] is 7.26 µM. The Activity entry in series [8] is recorded as “Non-toxic”.
